The source made the active and inactive calls. No cut-off for these calls is given here.
What was measured:
L929 [1] = assay: Inhibition of LPS-induced nitric oxide production in mouse L929 cells assessed as nitrite formation; format: functional, cell-based
RAW [2] = assay: Inhibition of LPS-induced nitric oxide production in mouse RAW 264.7 cells assessed as nitrite formation; format: functional, cell-based
L929 [3] = assay: Inhibition of LPS-induced TNFalpha production in mouse L929 cells after 4 hrs by ELISA; format: functional, cell-based; settings: L929, 4 h
RAW [4] = assay: Inhibition of LPS-induced TNFalpha production in mouse RAW 264.7 cells after 4 hrs by ELISA; format: functional, cell-based
L929 [5] = assay: Effect on TNF-mediated cytotoxicity against mouse L929 cells at 1 ug/mL after 18 hrs by crystal-violet staining assay; format: functional
L929 [6] = assay: Effect on TNF-mediated cytotoxicity against mouse L929 cells at 10 ug/mL after 18 hrs by crystal-violet staining assay; format: functional
L929 [7] = assay: Effect on TNF-mediated cytotoxicity against mouse L929 cells at 100 ug/mL after 18 hrs by crystal-violet staining assay; format: functional
HT-29 [8] = assay: Inhibition of LPS-stimulated prostaglandin E2 release in human HT29 cells after 6 hrs by ELISA; format: functional, cell-based
HT-29 [9] = assay: Inhibition of LPS-stimulated […] release in human HT29 cells after 6 hrs by ELISA; format: functional, cell-based
Mus musculus [10] = assay: Antiinflammatory activity in paraffin oil challenged ip dosed C3H-FeJ peritonitis mouse model after 7 days; format: functional; settings: 168 h
Mus musculus [11] = assay: Antiinflammatory activity in paraffin oil challenged C3H-FeJ peritonitis mouse model assessed as peritoneal levage macrophage count per 10^5/mL at 2 mg/kg, ip after 7 days; format: functional; settings: route intraperitoneal
Mus musculus [12] = assay: Antiinflammatory activity in paraffin oil challenged C3H-FeJ peritonitis mouse model assessed as peritoneal levage macrophage count per 10^5/mL at 4 mg/kg, ip after 7 days; format: functional; settings: route intraperitoneal
Mus musculus [13] = assay: Antiinflammatory activity against TNBS-induced colitis in BALB/c IBD mouse model at 25 mg/kg, ip; format: functional, organism-based; design: dose 25 mg/kg
Mus musculus [14] = organism: Mus musculus; assay: Antiinflammatory activity against LPS-galactosamine challenged C57BL/6J SIRS mouse model at 500 ug assessed as mortality within 24 hrs; format: functional, organism-based
Mus musculus [15] = assay: Effect on TNF-mediated cytotoxicity against C3H-FeJ mouse L929 cells at 2 mg/kg, ip after 3 days; format: functional; settings: route intraperitoneal
[16] = biological target: T1, Tyrosine-protein kinase JAK3 (Mus musculus) (UniProt Q62137); assay: Reduction of LPS-induced JAK3 phosphorylation in mouse RAW 264.7 cells at 100 ug/mL by Western blot analysis; format: cell-based
T1 sequence (whole entry): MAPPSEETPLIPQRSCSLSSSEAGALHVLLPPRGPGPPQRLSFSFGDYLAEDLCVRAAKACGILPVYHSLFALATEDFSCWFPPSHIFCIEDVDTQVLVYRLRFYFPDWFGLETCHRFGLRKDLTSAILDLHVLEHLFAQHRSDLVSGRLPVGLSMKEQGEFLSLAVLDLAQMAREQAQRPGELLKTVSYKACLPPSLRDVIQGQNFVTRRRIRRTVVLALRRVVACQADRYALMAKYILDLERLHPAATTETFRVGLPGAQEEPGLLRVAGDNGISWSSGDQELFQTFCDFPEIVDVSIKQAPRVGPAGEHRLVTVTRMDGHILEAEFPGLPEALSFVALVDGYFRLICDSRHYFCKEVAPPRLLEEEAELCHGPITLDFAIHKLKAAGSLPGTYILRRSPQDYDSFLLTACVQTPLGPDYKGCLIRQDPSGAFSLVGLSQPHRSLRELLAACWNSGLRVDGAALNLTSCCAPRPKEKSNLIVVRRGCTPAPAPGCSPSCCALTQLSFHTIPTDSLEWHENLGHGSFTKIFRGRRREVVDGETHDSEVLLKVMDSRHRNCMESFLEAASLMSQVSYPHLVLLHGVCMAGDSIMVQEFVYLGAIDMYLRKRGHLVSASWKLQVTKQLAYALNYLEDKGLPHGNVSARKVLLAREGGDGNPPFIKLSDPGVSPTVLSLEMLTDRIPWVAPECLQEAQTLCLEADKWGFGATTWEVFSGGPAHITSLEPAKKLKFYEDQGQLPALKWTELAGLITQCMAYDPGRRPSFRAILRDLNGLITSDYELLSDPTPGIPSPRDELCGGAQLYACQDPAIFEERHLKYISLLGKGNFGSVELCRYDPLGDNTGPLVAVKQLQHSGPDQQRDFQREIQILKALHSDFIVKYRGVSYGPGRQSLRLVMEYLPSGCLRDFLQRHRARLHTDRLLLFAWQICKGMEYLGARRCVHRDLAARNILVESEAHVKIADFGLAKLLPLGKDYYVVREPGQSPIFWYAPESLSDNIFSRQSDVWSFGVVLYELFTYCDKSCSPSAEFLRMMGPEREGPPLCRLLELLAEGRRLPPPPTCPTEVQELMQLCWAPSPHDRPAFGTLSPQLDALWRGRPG

RAW [17] = assay: Inhibition of LPS-induced iNOS mRNA level in mouse RAW 264.7 cells by Northern blot analysis; format: functional, cell-based
RAW [18] = assay: Inhibition of LPS-induced TNFalpha mRNA level in mouse RAW 264.7 cells by Northern blot analysis; format: functional, cell-based
Mus musculus [19] = assay: Effect on TNF-mediated cytotoxicity against C3H-FeJ mouse L929 cells at 2 mg/kg, ip after 7 days; format: functional; settings: route intraperitoneal
Mus musculus [20] = assay: Effect on TNF-mediated cytotoxicity against C3H-FeJ mouse […] cells at 4 mg/kg, ip after 7 days; format: functional; settings: route intraperitoneal
Mus musculus [21] = assay: Effect on LPS-induced nitric oxide production in C3H-FeJ peritonitis mouse peritoneal macrophages at 2 mg/kg, ip after 7 days; format: functional; settings: route intraperitoneal
Mus musculus [22] = assay: Effect on LPS-induced nitric oxide production in C3H-FeJ peritonitis mouse peritoneal macrophages at 4 mg/kg, ip after 7 days; format: functional; settings: route intraperitoneal
Mus musculus [23] = assay: Antiinflammatory activity in paraffin oil challenged C3H-FeJ peritonitis mouse model assessed as peritoneal levage macrophage count per 10^5/mL at 2 mg/kg, ip after 3 days; format: functional; settings: route intraperitoneal
Mus musculus [24] = assay: Antiinflammatory activity in paraffin oil challenged C3H-FeJ peritonitis mouse model assessed as peritoneal levage macrophage count per 10^5/mL at 4 mg/kg, ip after 3 days; format: functional; settings: route intraperitoneal
Mus musculus [25] = assay: Effect on TNF-mediated cytotoxicity against C3H-FeJ mouse […] cells at 4 mg/kg, ip after 3 days; format: functional; settings: route intraperitoneal
Mus musculus [26] = assay: Effect on LPS-induced nitric oxide production in C3H-FeJ peritonitis mouse peritoneal macrophages at 2 mg/kg, ip after 3 days; format: functional; settings: route intraperitoneal
Mus musculus [27] = assay: Effect on LPS-induced nitric oxide production in C3H-FeJ peritonitis mouse peritoneal macrophages at 4 mg/kg, ip after 3 days; format: functional; settings: route intraperitoneal
Mus musculus [28] = assay: Antiinflammatory activity against carrageenan-induced hind paw edema in CD1 foot-pad mouse model assessed as reduction in paw swelling at 30 mg/kg, ip after 6 hrs; format: functional, organism-based; design: dose 30 mg/kg
Mus musculus [29] = assay: Antiinflammatory activity against carrageenan-induced hind paw edema in ICR foot-pad mouse model assessed as reduction in paw swelling at 30 mg/kg, ip after 6 hrs; format: functional, organism-based; design: dose 30 mg/kg

COc1cc2ncnc(Nc3ccc(O)cc3)c2cc1OC [WHI-P131] showed an IC50 (L929 [1]) of 1.7 µM, an IC50 (RAW [2]) of 1.4 µM and an IC50 (L929 [3]) of 14.5 µM. The IC50 (RAW [4]) was 124 µM, the Activity (L929 [5]) was 45.9% and the Activity (L929 [6]) was 25.7%. For the same molecule, the Activity (L929 [7]) was 0%, the Activity (HT-29 [8]) was “Active” and the Activity (HT-29 [9]) was “Active”. The ED50 (Mus musculus [10]) was 2.8 mg/kg, the Activity (Mus musculus [11]) was 4.3 and the Activity (Mus musculus [12]) was 2.5. The Activity (Mus musculus [13]) was “Active”, the Activity (Mus musculus [14]) was “Non-toxic” and the Activity (Mus musculus [15]) was 31.8%. For the same molecule, the Activity [16] was “Active”, the Activity (RAW [17]) was “Active” and the Activity (RAW [18]) was “Dose-dependent effect”. It also gave an Activity (Mus musculus [19]) of 45.3%, an Activity (Mus musculus [20]) of 34.6% and an Activity (Mus musculus [21]) of 3 µM. For the same molecule, the Activity (Mus musculus [22]) was 4 µM, the Activity (Mus musculus [23]) was 3.1 and the Activity (Mus musculus [24]) was 2.3. The Activity (Mus musculus [25]) was 18.8%, the Activity (Mus musculus [26]) was 40 µM and the Activity (Mus musculus [27]) was 13 µM. For the same molecule, the Activity (Mus musculus [28]) was “Active” and the Activity (Mus musculus [29]) was “Active”.

— ChEMBL document CHEMBL1143984, “Anti-inflammatory activity profile of JANEX-1 in preclinical animal models” (Bioorg Med Chem, 2008)
